“And” between values parts separate entries of the source, which are not always exact repeats. Identical values can stand only once.
Columns and labels:
[1] = tested on: carrageenan-induced rat paw edema; test: Carrageenan-induced paw edema in rats; format: in vivo; conditions: 10 mg/kg orally; for rat paw edema: after 1 h of dosing; for rat paw edema size: evaluated for 5 h, Figure 3
Source text: The carrageenan-induced paw edema model was used to evaluate the compounds’ anti-inflammatory activity. Only carrageenan was given to the control animals. The treatment effect was tracked by observing the improvement of rat paw edema in response to drug administration. Carrageenan injections caused rat paws to grow from 0.3 cm to 0.8 cm in size.
Following in vitro testing, three compounds with the highest selectivity against COX-2 were chosen for in vivo investigations utilizing the rat paw edema assay. After subcutaneous carrageenan injection into the rodent’s paw, plasma extravasation, tissue proliferation, plasma protein release, and neutrophilic extravasation, all of which are caused by arachidonic acid digestion, produced inflammation. Following the carrageenan infusion, the main phase lasted 2 h. The following process is remodeling, which takes 5 h and begins at the 3rd h. The main stage is distinguished by the appearance of histamine and serotonin. The development of prostaglandins, proteases, and lysosomes causes the second stage of edema. Adult male albino rats weighing 120–150 g were divided into seven groups, each with seven rats, and kept at 25 °C with a 12-h light/dark cycle. Subplantar injection of 0.2 mL of 1% carrageenan solution in 0.9 percent saline into the right hind paw of rats was used to induce swelling and inflammation. To determine the inflammation generated by carrageenan, the Vernier Caliper was used to measure the thickness of rat paws before and after injection. […] Paw edema was measured at 0, 0.5, 1, 2, 3, 4, and 5 h after the drug was administered. The edema inhibition was calculated by calculating the difference in thicknesses between the treated and control groups.

rat paw = test: Histopathological examination of rat paw (H&E, Masson's trichrome); format: in vivo; conditions: carrageenan-treated rats
Method: The rats’ paws were collected and washed in a saline solution after the end of rat paw experiment. Specimens were fixed in 10% natural formalin for 2 days before being washed overnight with running water. The cleaned samples were dehydrated in ethyl alcohol at increasing percentages, starting with 70% and ending with absolute alcohol. The samples were cleaned by immersing them in xylol for 2 h. For 3 h at 37 °C, the cleared samples were placed in a sealed jar containing 50% paraffin in xylol. The samples were then soaked in melting paraffin for 2 h at 48 °C before being blocked in hard paraffin and sliced into 5-micron slices. The sections were stained with hematoxylin and eosin (H&E) and Masson’s trichrome. Sections were mounted with Canada balsam and covered with a coverslip in preparation for histological examination.

rat stomach = test: Histopathological examination of rat stomach / ulcerogenic effect; format: in vivo; conditions: single dose 20 mg/kg orally
Method: Compounds 1–3 were examined for ulcerogenic effects in the rat stomach after showing anti-inflammatory advantages in a rat paw test. Rats were deprived for 24 h at 25 °C with a 12 h light/dark cycle. Indomethacin was used as a control. All compounds were given in a single dose of 20 mg/kg orally. After 24 h, the rats were slaughtered, and their stomachs were removed and washed with normal saline. Binocular magnification was used to inspect each group’s stomachs for the existence of a gastric lesion on the mucosa. Following that, the stomachs were kept in 10% w/v formalin for histological investigation, as previously described.

COX-2 = target: T1, COX-2 (Homo sapiens, UniProt P35354); test: COX-2 inhibitor screening assay kit (Cayman); format: biochemical; conditions: for IC50: three separate experiments
T1 construct: purchased Cayman Chemical (Ann Arbor, MI, USA)
T1 sequence (P35354 18-604): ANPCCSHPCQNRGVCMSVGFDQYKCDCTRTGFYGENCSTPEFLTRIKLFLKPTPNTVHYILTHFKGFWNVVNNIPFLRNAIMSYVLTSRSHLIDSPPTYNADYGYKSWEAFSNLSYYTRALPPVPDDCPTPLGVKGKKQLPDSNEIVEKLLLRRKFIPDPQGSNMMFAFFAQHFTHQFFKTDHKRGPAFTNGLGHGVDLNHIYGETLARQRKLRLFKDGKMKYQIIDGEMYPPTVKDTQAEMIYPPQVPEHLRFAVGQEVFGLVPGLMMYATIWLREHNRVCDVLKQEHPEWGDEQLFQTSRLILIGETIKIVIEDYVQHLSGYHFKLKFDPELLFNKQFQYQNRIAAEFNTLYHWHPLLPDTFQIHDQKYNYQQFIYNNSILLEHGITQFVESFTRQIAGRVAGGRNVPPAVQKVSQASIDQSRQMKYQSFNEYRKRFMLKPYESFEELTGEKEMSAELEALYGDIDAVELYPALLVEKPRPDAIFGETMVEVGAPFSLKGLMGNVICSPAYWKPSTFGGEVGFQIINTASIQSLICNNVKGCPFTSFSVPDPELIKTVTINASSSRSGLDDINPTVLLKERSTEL
Method: The test chemicals’ capacity to inhibit the conversion of arachidonic acid to prostaglandin was determined. In test tubes, 25 mM Tris–HCl, pH 8.0, containing 5 mM EDTA, phenol, and 1 mM hematin, was added. The test compounds were dissolved in dimethyl sulfoxide and added in concentrations ranging from 0.005–200 µM. Dimethyl sulfoxide alone was applied to control test containers. COX-1 or COX-2 enzymes were added to test tubes and preincubated for 10 min at 37 °C. The arachidonic acid substrate was added, and the tubes were incubated at 37 °C for 2 min. The compound immunochemical assay was used to calculate the amount of prostaglandin produced. Three separate experiments were used to calculate the IC50 values. The selectivity index was calculated as follows:(1) Selectivity index=IC50COX−1/IC50COX−2

Raw264.7 cells = test: In vitro cytotoxicity, WST-1 assay; format: cell-based, mouse; conditions: 1 µM, 24 h, presence or absence of LPS (1 ug/mL)
Method: Raw264.7 cells were used to test the effects of compounds 1, 2, and 3 on cell viability and proliferation. Raw264.7 cells were treated for 24 h in a 96-well plate with compounds (1 µM) in the presence or absence of LPS (1 ug/mL). WST1 reagent was added to each well after treatment and incubated for an additional 2 h. Following that, the OD450/620 ratio was determined. […] However, all compounds had no effect on WST1 values or cell morphology in Raw264.7 cells. Raw264.7 cells in a 96-well plate were treated with our compounds (1 uM) in the presence or absence of LPS (1 ug/mL) for 24 h. After treatment, the WST1 reagent was added into each well and incubated for an additional 2 h. After that, OD450/620 was measured.
Dulbecco’s modified Eagle’s minimum essential medium containing 5% heat-inactivated fetal bovine serum was used to maintain Raw264.7 cells (ATCC). Raw264.7 cells ([…]) in a 96-well plate were treated for 24 h with the indicated compounds at 1 µM or vehicle (DMSO) in the presence or absence of LPS (1 µg/mL) to detect cell viability based on mitochondrial activity. WST-1 solution (Dojindo) was then added to each well and incubated at 37 °C for an additional 2 h. According to a previous study, cell viability was determined using the difference in absorbance at 450 and 620 nm as an indicator [37].

Row | SMILES | rat paw edema [1] | rat paw collagen deposition, Masson's Trichrome stain (rat paw; 10× magnification) | rat paw histopathology, H&E (rat paw; 10× magnification) | rat paw histopathology, H&E (rat paw; 40× magnification) | rat stomach collagen deposition, Masson's Trichrome (rat stomach) | rat stomach collagen deposition, Masson's Trichrome (rat stomach; 10× magnification) | rat stomach histopathology, H&E (rat stomach; 10× magnification) | rat stomach collagen deposition, Masson's Trichrome (rat stomach; 40× magnification) | rat stomach histopathology, H&E (rat stomach; 40× magnification) | SI (selectivity index = IC50 COX-1/IC50 COX-2) (COX-2) | IC50 (COX-2) [nM] | rat paw edema size [1] | effect on WST1 values (cell viability) and cell morphology (Raw264.7 cells) | rat paw collagen deposition, Masson's stain (rat paw) | rat paw histopathology, H&E: edema and inflammatory cell infiltration (rat paw)
1 | COc1ccc2c(c1)c(CC(=O)O)c(C)n2C(=O)c1ccc(Cl)cc1 [Indomethacin, reference compound] | dramatically reduced rat paw edema | slight collagen deposition | significant decrease in the degree of inflammatory reaction (black star) and a moderate decrease in edema | slight inflammatory reaction (black star) and edema | mild increase in collagen deposition | significant collagen deposition | slight degeneration of gastric layers | collagen deposition | absence of any signs of an inflammatory reaction | – | – | – | – | – | –
2 | COc1ccc(CN(Cc2ccc(F)cc2)CC2CCCO2)cc1CO (stereo not drawn) [Compound 4] | – | – | – | – | – | – | – | – | – | 36.3 | 210 ± 10 | – | – | – | –
3 | CCOC(=O)c1cn(-c2cc(C#N)ccc2O)cc(Oc2ccccc2)c1=O [Compound 2, ethyl 1-(5-cyano-2-hydroxyphenyl)-4-oxo-5-phenoxy-1,4-dihydropyridine-3-carboxylate] | – | slight collagen deposition | substantial decrease in both the inflammatory reaction (black star) and edema | slight inflammatory reaction (black star) and edema | – | slight collagen deposition | normal gastric layers | slight collagen deposition | absence of any signs of an inflammatory reaction | – | – | significantly reduced rat paw size | non-cytotoxic | lowest | marked anti-inflammatory effect and a pronounced decline in edema and inflammatory cell invasion
4 | O=C(O)[C@H]1C[C@@H](C(=O)NC2CC2)CN(C(=O)c2ccc3[nH]nnc3c2)C1 [Compound 3] | – | significant collagen deposition | significant decrease in the degree of inflammatory reaction (black star) and a moderate decrease in edema | moderate inflammatory reaction (black star) and edema | mild increase in collagen deposition | significant collagen deposition | slight degeneration of gastric layers | significant collagen deposition | absence of any signs of an inflammatory reaction | 194.9 and 194.91 | 60 ± 3 | significantly reduced rat paw size | – | – | weaker action than compounds 1 and 2 manifested by a moderate increase in cell infiltration and edema
5 | O=C(O)CC1COCCN1Cc1cccc(-c2ccccn2)c1 (stereo not drawn) [Compound 6] | – | – | – | – | – | – | – | – | – | 190.88 | 60 ± 75 | – | – | – | –
6 | O=C(O)Cc1ccccc1Nc1c(Cl)cccc1Cl [Diclofenac, reference compound] | dramatically reduced rat paw edema | – | – | – | – | – | – | – | – | – | – | – | – | – | –
7 | Cc1cccc2[nH]c(C3CCCN(C(=O)c4ccccc4NCC(=O)O)C3)nc12 (stereo not drawn) [Compound 1, [(2-{[3-(4-methyl-1H-benzimidazol-2-yl)piperidin-1-yl]carbonyl}phenyl)amino]acetic acid] | – | slight collagen deposition | significant decrease in the dermal thickness, inflammatory reaction in the deep dermis (black star), and moderate improvements in edema | slight inflammatory reaction (black star) and edema | – | normal collagen deposition | normal gastric layers | normal collagen deposition | absence of any signs of an inflammatory reaction | – | – | significantly reduced rat paw size | non-cytotoxic | – | marked improvement in the degree of edema and the inflammatory cell infiltration
8 | O=C(O)COc1ccc(Cl)cc1C1CC(=O)Nc2cc3[nH]ncc3cc21 (stereo not drawn) [Compound 7] | – | – | – | – | – | – | – | – | – | 95.068 | 97 ± 15 | – | – | – | –
9 | COc1cccc(-c2nn(-c3ccccc3)cc2CN(C)CCc2cn[nH]c2)c1 [Compound 5] | – | – | – | – | – | – | – | – | – | 132.64 | 80 ± 9 | – | – | – | –

Source: article PMC8955829, “Drug Discovery of New Anti-Inflammatory Compounds by Targeting Cyclooxygenases” (Pharmaceuticals, 2022)
